{"source": "patent US7081256B2", "about": "“Quinolinone derivative pharmaceutical compositon and production method therefor” (Dainippon Ink and Chemicals, Inc., priority 2001, dated 2006)", "key": {"[1]": {"assay": "Measurement of particle size distribution (AEROSIZER)", "format": "physicochemical", "details": "for Average particle diameter: mass median aerodynamic diameter", "experimental": "As used herein, the expression “quinolinone derivative is in the form of particles, which have an average particle diameter of 0.5 to 10 μm and such a particle size distribution that particles having a particle diameter of 15 μm or less account for 90% or more of the totality of the particles” means that a mass median aerodynamic diameter in the volume-basis distribution obtained, when the particle size distribution of the quinolinone derivative is measured by an aerodynamic flight time type dry particle size distribution measuring apparatus (AEROSIZER: Central Scientific Commerce, Inc.), is within a range from 0.5 to 10 μm and the particles have such a particle size distribution that particles having a particle diameter of 15 μm or less account for 90% or more of the totality of the particles.\n(§1) • Measurement of particle size distribution: The particle size distribution was automatically measured by AEROSIZER (manufactured by Central Scientific Commerce, Inc.). • DSC method: Using DSC7 (manufactured by Perkin Elmer Co.), the measurement was conducted at a temperature within a range from 25 to 250° C. under the conditions of a heating rate of 20° C./min. by a normal method."}, "[2]": {"assay": "Differential scanning calorimetry (DSC)", "format": "physicochemical", "details": "for DSC Fusion enthalpy ΔH: 25 to 250° C., heating rate 20° C./min.", "description": "Furthermore, the quinolinone derivative used in the present invention has a fusion enthalpy (ΔH) of 30 J/g or more, and preferably 35 J/g or more. […] As used herein, the term “fusion enthalpy” refers to a value obtained from an endothermic peak due to fusion of the quinolinone derivative crystal in differential scanning calorimetry (DSC) and is an index of the crystallinity.\nas §1"}, "[3]": {"assay": "Dissolution test, paddle method, 50 rpm, 0.5% sodium lauryl sulfate", "format": "physicochemical", "details": "paddle 50 rpm, compared with the non-ground product", "experimental": "Furthermore, dissolution properties of these quinolinone derivatives were evaluated by the dissolution test (paddle method). The results are shown in FIG. 2. • Powder X-ray diffraction method: Using RINT-ULTIMA (manufactured by Rigaku Denki Kogyo Co., Ltd.), the measurement was conducted at a diffraction angle within a range from 5 to 40° under the conditions of Cu—Kα rays, 40 KV and 30 mA by the normal method. • Dissolution test method: According to the second method (paddle method) of the dissolution test method of The Pharmacopoeia of Japan, Fourteenth Edition, the measurement was conducted under the conditions of a paddle rotational speed of 50 rpm using 0.5% sodium lauryl sulfate as a test liquid.\n(§2) According to the disintegration test of The Pharmacopoeia of Japan, Fourteenth Edition, the disintegration time of the resulting tablets was measured by using water as a test liquid (n=3). […]\nas §2, §2"}, "[4]": {"details": "dog, in vivo, po, 10 mg/kg", "method": "After oral administration, 30 ml of distilled water was orally administered. After oral administration, 2.5 ml of blood was collected from the antebrachial vein over time and was then centrifuged to obtain blood plasma. After adding the one-fold amount of acetonitrile to blood serum to remove protein, the amounts of quinolinone derivative and its metabolite were determined by using HPLC.\nFrom the quantitatively determined values of the quinolinone derivative and its metabolite immediately after collecting blood, an average value of a maximum concentration in blood (Cmax) and an average value of an area under a curve of concentration in blood vs time (AUC) were determined."}}, "note": "Read-outs that look alike come from different tables or passages of the source.", "data": [{"molecule": "CCCCCCCCOc1c(O)c2ccc(NC(=O)/C=C/c3cc(OC)c(O)c(OC)c3)cc2n(C)c1=O", "note": "[quinolinone derivative (B), 7-(3,5-dimethoxy-4-hydroxycinnamoylamino)-3-octyloxy-4-hydroxy-1-methyl-2(1H)-quinoline]", "values": [{"measurement": "Proportion (%) of particles having a particle diameter of 15 μm or less based on the totality of the particles", "setting": "[1]", "value": "≥ 0.6", "unit": "%"}, {"measurement": "Proportion (%) of particles having a particle diameter of 15 μm or less based on the totality of the particles", "setting": "[1]; listed as (B)", "value": 0.6, "unit": "%"}, {"measurement": "Average particle diameter", "setting": "[1]", "value": 33.3, "unit": "μm"}, {"measurement": "Average particle diameter", "setting": "[1]; listed as (B)", "value": 33.3, "unit": "μm"}, {"measurement": "DSC Fusion enthalpy ΔH", "setting": "[2]", "value": "≥ 52.7", "unit": "J/g"}, {"measurement": "DSC Fusion enthalpy ΔH", "setting": "[2]; listed as (B)", "value": 52.7, "unit": "J/g"}]}, {"molecule": "CCCCCCCCOc1c(O)c2ccc(NC(=O)/C=C/c3cc(OC)c(O)c(OC)c3)cc2n(C)c1=O", "note": "[quinolinone derivative (A), 7-(3,5-dimethoxy-4-hydroxycinnamoylamino)-3-octyloxy-4-hydroxy-1-methyl-2(1H)-quinoline]", "values": [{"measurement": "Proportion (%) of particles having a particle diameter of 15 μm or less based on the totality of the particles", "setting": "[1]", "value": "≥ 9.9", "unit": "%"}, {"measurement": "Proportion (%) of particles having a particle diameter of 15 μm or less based on the totality of the particles", "setting": "[1]; listed as (A)", "value": 9.9, "unit": "%"}, {"measurement": "Average particle diameter", "setting": "[1]", "value": 25.3, "unit": "μm"}, {"measurement": "Average particle diameter", "setting": "[1]; listed as (A)", "value": 25.3, "unit": "μm"}, {"measurement": "DSC Fusion enthalpy ΔH", "setting": "[2]", "value": "≥ 49.9", "unit": "J/g"}, {"measurement": "DSC Fusion enthalpy ΔH", "setting": "[2]; listed as (A)", "value": 49.9, "unit": "J/g"}]}, {"molecule": "CCCCCCCCOc1c(O)c2ccc(NC(=O)/C=C/c3cc(OC)c(O)c(OC)c3)cc2n(C)c1=O", "note": "[Comparative Example 2, 7-(3,5-dimethoxy-4-hydroxycinnamoylamino)-3-octyloxy-4-hydroxy-1-methyl-2(1H)-quinoline]", "values": [{"measurement": "Solid state by DSC (endothermic peak of β-type crystal)", "setting": "[2]; after grinding in agate mortar for 30 minutes", "value": "amorphous state"}]}, {"molecule": "CCCCCCCCOc1c(O)c2ccc(NC(=O)/C=C/c3cc(OC)c(O)c(OC)c3)cc2n(C)c1=O", "note": "[quinolinone derivative (A-1), 7-(3,5-dimethoxy-4-hydroxycinnamoylamino)-3-octyloxy-4-hydroxy-1-methyl-2(1H)-quinoline]", "values": [{"measurement": "dissolution rate (FIG. 2)", "setting": "[3]", "value": "drastically increased"}, {"measurement": "Proportion (%) of particles having a particle diameter of 15 μm or less based on the totality of the particles", "setting": "[1]; listed as (A-1)", "value": 100, "unit": "%"}, {"measurement": "Average particle diameter", "setting": "[1]; listed as (A-1)", "value": 4.5, "unit": "μm"}, {"measurement": "DSC Fusion enthalpy ΔH", "setting": "[2]; listed as (A-1)", "value": 47.7, "unit": "J/g"}]}, {"molecule": "CCCCCCCCOc1c(O)c2ccc(NC(=O)/C=C/c3cc(OC)c(O)c(OC)c3)cc2n(C)c1=O", "note": "[quinolinone derivative (B-1), 7-(3,5-dimethoxy-4-hydroxycinnamoylamino)-3-octyloxy-4-hydroxy-1-methyl-2(1H)-quinoline]", "values": [{"measurement": "AUC increase as compared with the non-ground product", "setting": "[4]", "value": 8.7, "unit": "times"}, {"measurement": "Cmax increase as compared with the non-ground product", "setting": "[4]", "value": 9, "unit": "times"}, {"measurement": "Proportion (%) of particles having a particle diameter of 15 μm or less based on the totality of the particles", "setting": "[1]; listed as (B-1)", "value": 95, "unit": "%"}, {"measurement": "Average particle diameter", "setting": "[1]; listed as (B-1)", "value": 6.6, "unit": "μm"}, {"measurement": "DSC Fusion enthalpy ΔH", "setting": "[2]; listed as (B-1)", "value": 51.6, "unit": "J/g"}]}]}
